Source: article PMC6458850, “CXXC5 mediates growth plate senescence and is a target for enhancement of longitudinal bone growth” (Life Science Alliance, 2019)

Legend:
[1] = tested on: tibial growth plate; assay: Estrogen-induced growth plate senescence in Cxxc5+/+ and Cxxc5−/− mice; assay type: in vivo, mouse; conditions: E2 cypionate 70 μg/kg i.m. once a week for 3 wk
Experimental: Figure 2. The effects of estrogen on CXXC5 expression and the mediation of growth plate senescence. (A) Immunoblotting (upper) and quantitative analyses (mean ± SEM, n = 3) (lower) in C28/I2 cells treated with 100 nM E2 (17β-estradiol) for 0, 1, 3, 6, 24, 48, or 72 h. (B) Immunocytochemical staining (left) and quantitative analyses of the fluorescent intensity (mean ± SEM, n = 3; t test, **P < 0.005 and ***P < 0.0005) (right) in C28/I2 cells treated with 100 nM E2 for 40 h. Scale bars, 100 μm. (C–E) Tibial organ cultures (E15.5) incubated with 100 nM E2 for 6 d. Representative images at 6 d (C, left) and quantitative analyses of the growth changes (mean ± SEM, n = 5; t test, ***P < 0.0005) (C, right). Scale bar, 1 mm. H&E staining (D, left) and quantification of each zone height (mean ± SEM, n = 5; t test, *P < 0.05 and **P < 0.005) (D, right) in the growth plate. Scale bar, 200 μm. IHC analyses of β-catenin and CXXC5 (E). Scale bars, 50 μm. (F) 3-wk-old Cxxc5^+/+ and Cxxc5^−/− mice were treated with E2 cypionate (70 μg/kg) by i.m. injection once a week for 3 wk (n = 3–4). Representative images of H&E staining and IHC analyses for BrdU, β-catenin, and CXXC5 in the growth plates of proximal tibiae are shown. The area within the dashed lines indicates the growth plate zone. Black and white scale bars, 50 μm. Yellow scale bar, 20 μm. RZ, resting zone; PZ, proliferative zone; HZ, hypertrophic zone. […]

[2] = tested on: HEK293-TOP cells; assay: TOPFlash Wnt reporter assay; assay type: cell-based; conditions: 18 h
Experimental: Figure 4. Identification of functional properties of KY19382 in activating the Wnt/β-catenin pathway. (A) Chemical structure of KY19382. (B) In vitro binding assay to analyze the effect of KY19382 on CXXC5–DVL interaction (mean ± SEM, n = 3). The IC50 value was determined from the dose–response curve. (C) In vitro kinase assay to analyze the effect of KY19382 on kinase activity of GSK3β (mean ± SEM, n = 3). The IC50 value was determined from the dose–response curve. (D) Analyses of TOPFlash activity in HEK293 reporter cells grown with the indicated concentrations of KY19382 for 18 h (mean ± SEM, n = 4; t test, **P < 0.005 and ***P < 0.0005 versus DMSO-treated control). (E) Immunoblot analyses with the indicated antibodies in ATDC5 cells treated with I3O or KY19382 for 24 h. (F) Immunoblot analyses of whole cell lysates immunoprecipitated with anti-Myc in ATDC5 cells treated with 0.1 μM KY19382 for 4 h after transfection with pCMV-FLAG-DVL1 and pcDNA3.1-CXXC5-Myc. (G) Immunocytochemical staining (left) and quantitative analyses (mean ± SEM, n = 3; t test, **P < 0.005) (right) for β-catenin in ATDC5 cells treated with 0.1 μM KY19382 for 48 h. Scale bar, 100 μm.
HEK293-TOP cells were seeded into each well of a 24-well plate. The cells were treated with individual compounds at indicated concentration and cultured for 18 h. […]

[3] = target: GSK3β (human) (Homo sapiens, UniProt P49841); assay: GSK3β kinase assay; assay type: biochemical; conditions: dose–response curve, n = 3; read-out: IC50, in vitro GSK3β activity
Experimental: GSK3β (human) was incubated with 8 mM MOPS (pH 7.0), 0.2 mM EDTA, 20 μM […](p) EDEEE (phospho-GS2 peptide), 10 mM Mg acetate, and [γ-33P-ATP] (specific activity ∼500 cpm/pmol, concentration as required). The reaction was initiated by the addition of the Mg-ATP mixture. After incubation for 40 min at room temperature, the reaction was stopped by addition of 3% phosphoric acid solution. 10 μl of the reaction was then spotted onto a P30 filtermat and washed three times for 5 min in 50 mM phosphoric acid and once in methanol before drying and scintillation counting.

Sequence of GSK3β (human) (P49841 whole entry): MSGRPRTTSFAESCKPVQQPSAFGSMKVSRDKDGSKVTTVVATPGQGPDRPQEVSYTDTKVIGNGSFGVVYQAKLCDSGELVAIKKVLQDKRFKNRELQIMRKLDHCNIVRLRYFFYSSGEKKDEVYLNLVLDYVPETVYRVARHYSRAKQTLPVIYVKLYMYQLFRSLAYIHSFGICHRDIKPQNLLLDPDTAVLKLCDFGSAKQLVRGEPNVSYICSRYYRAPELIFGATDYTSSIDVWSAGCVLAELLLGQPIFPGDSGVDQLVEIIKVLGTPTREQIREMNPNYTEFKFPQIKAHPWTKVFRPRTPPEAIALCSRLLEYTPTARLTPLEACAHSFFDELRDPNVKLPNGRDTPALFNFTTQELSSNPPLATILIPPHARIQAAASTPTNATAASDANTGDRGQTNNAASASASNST

Row | SMILES | structural senescence of the tibial growth plate [1] | TOPFlash Wnt reporter activity [2] | IC50 [3] [nM]
1 | C[C@]12CC[C@@H]3c4ccc(O)cc4CC[C@H]3[C@@H]1CC[C@@H]2O [E2, 17β-estradiol] | hardly observed |  | 
2 | CON=C1C(=C2C(=O)Nc3cc(Cl)c(Cl)cc32)Nc2ccccc21 [KY19382, 5,6-dichloroindirubin-3′-methoxime] |  | strong enhancement | 10
